{"source": "patent US10723724B2", "about": "“Compounds for treating degenerative diseases of central nervous system or brain tumor, and uses thereof” (SUN YAT-SEN UNIVERSITY, priority 2016, dated 2020)", "key": {"[1]": {"molecular_target": "T1, FGFR4 (Homo sapiens, UniProt P22455)", "T1 construct": "purchased Life Technologies Corporation (Kinase Screening Service)", "experiment": "Kinase screening service: FGFR4", "type": "biochemical", "conditions": "average of duplicates", "procedure": "(§1) The inhibitory effect of PT109 on other kinases including SGK and JNK was detected by the Kinase Screening Service of Life Technologies Corporation (The concentration of compound 9 was 10 μM, measurements were performed in duplicates, and the value was represented by an average) to investigate the selectivity of the compound for JNK and SGK1."}, "[2]": {"molecular_target": "T2, MAP2K1 (MEK1) S218D S222D (Homo sapiens, UniProt Q02750, S218D/S222D)", "T2 construct": "purchased Life Technologies Corporation (Kinase Screening Service)", "experiment": "Kinase screening service: MAP2K1 S218D S222D", "type": "biochemical", "conditions": "average of duplicates", "procedure": "as §1"}, "[3]": {"molecular_target": "T3, AURKC (Aurora C) (Homo sapiens, UniProt Q9UQB9)", "T3 construct": "purchased Life Technologies Corporation (Kinase Screening Service)", "T3 sequence (Q9UQB9 whole entry)": "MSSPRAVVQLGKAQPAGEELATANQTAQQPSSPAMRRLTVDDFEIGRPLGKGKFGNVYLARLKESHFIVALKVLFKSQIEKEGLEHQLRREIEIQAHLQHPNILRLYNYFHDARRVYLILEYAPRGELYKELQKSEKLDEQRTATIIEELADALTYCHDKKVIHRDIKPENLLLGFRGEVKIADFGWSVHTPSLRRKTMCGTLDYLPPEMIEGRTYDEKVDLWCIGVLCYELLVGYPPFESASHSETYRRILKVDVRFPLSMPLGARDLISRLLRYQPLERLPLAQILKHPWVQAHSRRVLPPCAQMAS", "experiment": "Kinase screening service: AURKC", "type": "biochemical", "conditions": "average of duplicates", "procedure": "as §1"}, "[4]": {"tested_on": "other kinases including SGK and JNK", "experiment": "Kinase selectivity of PT109 (whole panel)", "type": "biochemical", "conditions": "10 μM, kinase panel of Table 2", "procedure": "as §1"}, "[5]": {"molecular_target": "T4, MAPK8 (JNK1) (Homo sapiens, UniProt P45983)", "T4 construct": "purchased Life Technologies Corporation (kinase screening service)", "T4 sequence (P45983 whole entry)": "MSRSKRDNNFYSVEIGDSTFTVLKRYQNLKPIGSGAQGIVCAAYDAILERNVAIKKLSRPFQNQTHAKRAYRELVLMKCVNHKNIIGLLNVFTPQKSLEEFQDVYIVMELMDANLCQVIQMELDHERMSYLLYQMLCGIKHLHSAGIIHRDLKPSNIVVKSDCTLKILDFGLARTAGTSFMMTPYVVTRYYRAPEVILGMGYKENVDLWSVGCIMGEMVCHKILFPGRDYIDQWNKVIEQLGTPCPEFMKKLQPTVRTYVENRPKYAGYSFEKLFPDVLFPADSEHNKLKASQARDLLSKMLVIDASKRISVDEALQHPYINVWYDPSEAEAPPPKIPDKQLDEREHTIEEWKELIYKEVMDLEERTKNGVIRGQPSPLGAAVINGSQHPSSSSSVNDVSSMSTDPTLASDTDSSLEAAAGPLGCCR", "experiment": "Kinase screening service (Life Technologies): JNK1", "type": "biochemical", "procedure": "(§2) The inhibitory effect of PT109 on SGK and INK was detected by the kinase screening commercialization service of Life Technologies Corporation.\nas §1"}, "[6]": {"molecular_target": "T5, PKN1 (PRK1) (Homo sapiens, UniProt Q16512)", "T5 construct": "purchased Life Technologies Corporation (Kinase Screening Service)", "experiment": "Kinase screening service: PKN1", "type": "biochemical", "conditions": "average of duplicates", "procedure": "as §1"}, "[7]": {"molecular_target": "T6, PRKCG (PKC gamma) (Homo sapiens, UniProt P05129)", "T6 construct": "purchased Life Technologies Corporation (Kinase Screening Service)", "experiment": "Kinase screening service: PRKCG", "type": "biochemical", "conditions": "average of duplicates", "procedure": "as §1"}, "[8]": {"molecular_target": "T7, PTK2B (FAK2) (Homo sapiens, UniProt Q14289)", "T7 construct": "purchased Life Technologies Corporation (Kinase Screening Service)", "experiment": "Kinase screening service: PTK2B", "type": "biochemical", "conditions": "average of duplicates", "procedure": "as §1"}, "[9]": {"molecular_target": "T8, PTK6 (Brk) (Homo sapiens, UniProt Q13882)", "T8 construct": "purchased Life Technologies Corporation (Kinase Screening Service)", "experiment": "Kinase screening service: PTK6", "type": "biochemical", "conditions": "average of duplicates", "procedure": "as §1"}, "[10]": {"molecular_target": "T9, PDGFRB (PDGFR beta) (Homo sapiens, UniProt P09619)", "T9 construct": "purchased Life Technologies Corporation (Kinase Screening Service)", "experiment": "Kinase screening service: PDGFRB", "type": "biochemical", "conditions": "average of duplicates", "procedure": "as §1"}, "[11]": {"molecular_target": "T10, LTK (TYK1) (Homo sapiens, UniProt P29376)", "T10 construct": "purchased Life Technologies Corporation (Kinase Screening Service)", "experiment": "Kinase screening service: LTK", "type": "biochemical", "conditions": "average of duplicates", "procedure": "as §1"}, "[12]": {"molecular_target": "T11, CSNK1E (CK1 epsilon) (Homo sapiens, UniProt P49674)", "T11 construct": "purchased Life Technologies Corporation (Kinase Screening Service)", "T11 sequence (P49674 whole entry)": "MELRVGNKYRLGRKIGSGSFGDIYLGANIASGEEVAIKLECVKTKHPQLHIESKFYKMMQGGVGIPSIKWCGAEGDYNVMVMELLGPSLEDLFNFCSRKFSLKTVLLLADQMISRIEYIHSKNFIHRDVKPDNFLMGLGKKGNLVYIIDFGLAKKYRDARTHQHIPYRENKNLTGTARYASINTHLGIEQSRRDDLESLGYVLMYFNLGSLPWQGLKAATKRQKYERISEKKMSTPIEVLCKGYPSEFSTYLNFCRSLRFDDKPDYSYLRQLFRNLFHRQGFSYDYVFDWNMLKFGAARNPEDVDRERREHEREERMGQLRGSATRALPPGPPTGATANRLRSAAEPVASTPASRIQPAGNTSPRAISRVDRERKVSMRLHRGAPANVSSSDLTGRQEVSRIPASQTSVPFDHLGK", "experiment": "Kinase screening service: CSNK1E", "type": "biochemical", "conditions": "average of duplicates", "procedure": "as §1"}, "[13]": {"molecular_target": "T12, CDK5/p25 (Homo sapiens, UniProt Q00535)", "T12 construct": "purchased Life Technologies Corporation (Kinase Screening Service)", "T12 sequence (Q00535 whole entry)": "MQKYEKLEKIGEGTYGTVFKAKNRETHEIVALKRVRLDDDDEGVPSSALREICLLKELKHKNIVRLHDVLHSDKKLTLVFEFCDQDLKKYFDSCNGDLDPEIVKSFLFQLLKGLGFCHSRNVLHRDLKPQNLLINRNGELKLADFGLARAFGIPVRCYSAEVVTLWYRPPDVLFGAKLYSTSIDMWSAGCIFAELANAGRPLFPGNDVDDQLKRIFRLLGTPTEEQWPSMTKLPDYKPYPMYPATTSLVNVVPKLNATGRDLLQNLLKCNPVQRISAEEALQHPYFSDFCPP", "T12 sequence (Q15078 99-307 partner limits assumed)": "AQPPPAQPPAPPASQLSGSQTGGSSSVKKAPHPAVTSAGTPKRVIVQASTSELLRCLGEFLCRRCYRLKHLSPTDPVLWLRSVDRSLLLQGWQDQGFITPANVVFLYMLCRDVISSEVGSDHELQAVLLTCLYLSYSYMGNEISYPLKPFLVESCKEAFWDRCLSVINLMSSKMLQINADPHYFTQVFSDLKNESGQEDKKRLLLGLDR", "experiment": "Kinase screening service: CDK5/p25", "type": "biochemical", "conditions": "average of duplicates", "procedure": "as §1"}, "[14]": {"molecular_target": "T13, SGK2 (Homo sapiens, UniProt Q9HBY8)", "T13 construct": "purchased Life Technologies Corporation (kinase screening service)", "experiment": "Kinase screening service (Life Technologies): SGK2", "type": "biochemical", "excerpt": "as §2"}, "[15]": {"molecular_target": "T14, EGFR (ErbB1) (Homo sapiens, UniProt P00533)", "T14 construct": "purchased Life Technologies Corporation (Kinase Screening Service)", "experiment": "Kinase screening service: EGFR", "type": "biochemical", "conditions": "average of duplicates", "procedure": "as §1"}, "[16]": {"molecular_target": "T15, MAP4K4 (HGK) (Homo sapiens, UniProt O95819)", "T15 construct": "purchased Life Technologies Corporation (Kinase Screening Service)", "experiment": "Kinase screening service: MAP4K4", "type": "biochemical", "conditions": "average of duplicates", "procedure": "as §1"}, "[17]": {"molecular_target": "T16, MAP3K3 (MEKK3) (Homo sapiens, UniProt Q99759)", "T16 construct": "purchased Life Technologies Corporation (Kinase Screening Service)", "experiment": "Kinase screening service: MAP3K3", "type": "biochemical", "conditions": "average of duplicates", "procedure": "as §1"}, "[18]": {"molecular_target": "T17, NEK7 (Homo sapiens, UniProt Q8TDX7)", "T17 construct": "purchased Life Technologies Corporation (Kinase Screening Service)", "T17 sequence (Q8TDX7 whole entry)": "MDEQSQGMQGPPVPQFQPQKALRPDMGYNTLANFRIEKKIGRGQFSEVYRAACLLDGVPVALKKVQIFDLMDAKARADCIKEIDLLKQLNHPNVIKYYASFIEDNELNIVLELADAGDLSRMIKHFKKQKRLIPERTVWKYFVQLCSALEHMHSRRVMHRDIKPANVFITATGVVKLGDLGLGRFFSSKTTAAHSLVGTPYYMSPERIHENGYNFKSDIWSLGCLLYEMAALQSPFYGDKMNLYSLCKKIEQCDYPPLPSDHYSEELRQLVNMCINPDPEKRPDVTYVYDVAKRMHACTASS", "experiment": "Kinase screening service: NEK7", "type": "biochemical", "conditions": "average of duplicates", "procedure": "as §1"}, "[19]": {"molecular_target": "T18, ADRBK1 (GRK2) (Homo sapiens, UniProt P25098)", "T18 construct": "purchased Life Technologies Corporation (Kinase Screening Service)", "experiment": "Kinase screening service: ADRBK1", "type": "biochemical", "conditions": "average of duplicates", "procedure": "as §1"}, "[20]": {"molecular_target": "T19, CHUK (IKK alpha) (Homo sapiens, UniProt O15111)", "T19 construct": "purchased Life Technologies Corporation (Kinase Screening Service)", "experiment": "Kinase screening service: CHUK", "type": "biochemical", "conditions": "average of duplicates", "procedure": "as §1"}, "[21]": {"molecular_target": "T20, MAP3K2 (MEKK2) (Homo sapiens, UniProt Q9Y2U5)", "T20 construct": "purchased Life Technologies Corporation (Kinase Screening Service)", "experiment": "Kinase screening service: MAP3K2", "type": "biochemical", "conditions": "average of duplicates", "procedure": "as §1"}, "[22]": {"molecular_target": "T21, PIK3C2A (PI3K-C2 alpha) (Homo sapiens, UniProt O00443)", "T21 construct": "purchased Life Technologies Corporation (Kinase Screening Service)", "T21 sequence (O00443 whole entry)": "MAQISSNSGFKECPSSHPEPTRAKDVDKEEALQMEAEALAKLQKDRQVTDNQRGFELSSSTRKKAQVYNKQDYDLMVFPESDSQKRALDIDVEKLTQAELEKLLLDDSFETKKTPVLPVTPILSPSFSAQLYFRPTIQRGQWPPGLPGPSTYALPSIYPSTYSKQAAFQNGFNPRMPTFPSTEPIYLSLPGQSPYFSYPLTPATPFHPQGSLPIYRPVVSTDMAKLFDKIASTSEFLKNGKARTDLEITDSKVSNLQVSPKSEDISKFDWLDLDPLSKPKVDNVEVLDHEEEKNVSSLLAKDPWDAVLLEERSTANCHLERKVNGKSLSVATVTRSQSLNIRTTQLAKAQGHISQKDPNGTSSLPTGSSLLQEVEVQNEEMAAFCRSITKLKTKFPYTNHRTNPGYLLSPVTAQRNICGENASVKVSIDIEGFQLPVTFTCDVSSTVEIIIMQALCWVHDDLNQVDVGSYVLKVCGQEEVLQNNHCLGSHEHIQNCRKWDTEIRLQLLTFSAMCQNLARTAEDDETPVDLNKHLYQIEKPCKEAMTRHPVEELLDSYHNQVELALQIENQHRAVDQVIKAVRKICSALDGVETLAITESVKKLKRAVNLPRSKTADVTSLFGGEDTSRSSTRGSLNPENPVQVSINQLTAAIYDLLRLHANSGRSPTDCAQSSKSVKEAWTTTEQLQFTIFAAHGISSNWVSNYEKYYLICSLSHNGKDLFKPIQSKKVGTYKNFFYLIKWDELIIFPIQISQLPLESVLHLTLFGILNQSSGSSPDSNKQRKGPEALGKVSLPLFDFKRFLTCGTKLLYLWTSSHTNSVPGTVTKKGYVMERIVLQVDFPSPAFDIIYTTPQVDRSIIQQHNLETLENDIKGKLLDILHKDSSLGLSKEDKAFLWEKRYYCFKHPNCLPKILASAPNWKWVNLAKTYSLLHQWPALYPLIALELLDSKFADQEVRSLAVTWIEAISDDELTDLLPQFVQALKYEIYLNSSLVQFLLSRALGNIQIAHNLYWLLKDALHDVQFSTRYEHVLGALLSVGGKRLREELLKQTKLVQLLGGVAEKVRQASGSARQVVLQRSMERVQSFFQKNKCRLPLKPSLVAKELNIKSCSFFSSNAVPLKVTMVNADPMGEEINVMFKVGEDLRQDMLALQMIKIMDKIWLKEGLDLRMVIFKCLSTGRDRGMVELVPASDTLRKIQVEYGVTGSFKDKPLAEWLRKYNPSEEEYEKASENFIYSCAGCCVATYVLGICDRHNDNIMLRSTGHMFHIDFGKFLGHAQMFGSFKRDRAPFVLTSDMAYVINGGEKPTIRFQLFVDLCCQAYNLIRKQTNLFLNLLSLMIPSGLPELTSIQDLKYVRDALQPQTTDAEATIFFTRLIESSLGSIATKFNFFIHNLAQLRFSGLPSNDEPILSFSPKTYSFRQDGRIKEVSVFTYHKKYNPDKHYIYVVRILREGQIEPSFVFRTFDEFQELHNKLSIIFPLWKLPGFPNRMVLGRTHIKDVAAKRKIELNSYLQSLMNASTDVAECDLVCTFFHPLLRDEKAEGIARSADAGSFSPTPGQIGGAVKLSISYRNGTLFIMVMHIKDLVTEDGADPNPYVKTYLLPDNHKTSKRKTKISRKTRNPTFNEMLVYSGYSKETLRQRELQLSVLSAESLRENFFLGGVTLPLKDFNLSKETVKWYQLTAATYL", "experiment": "Kinase screening service: PIK3C2A", "type": "biochemical", "conditions": "average of duplicates", "procedure": "as §1"}, "[23]": {"molecular_target": "T22, AKT2 (PKB beta) (Homo sapiens, UniProt P31751)", "T22 construct": "purchased Life Technologies Corporation (Kinase Screening Service)", "experiment": "Kinase screening service: AKT2", "type": "biochemical", "conditions": "average of duplicates", "procedure": "as §1"}, "[24]": {"tested_on": "HT-22 cells", "experiment": "Effect on ROS (DHE staining) in HT-22 cells", "type": "cell-based", "conditions": "PT109 at 10 μM, 2 mM glutamine 10 h", "procedure": "DHE staining was adopted to detect the formation of oxygen free radicals. The HT-22 cells were cultured in DMEM+10% fetal bovine serum and placed in a 5% CO2 incubator at 37° C. The cells were seeded in a poly-lysine-coated 24-well plate at a suitable density. After cell adherence, the PT109 separately prepared in the medium was added to the corresponding wells. Upon treatment for 30 min, 2 mM glutamine was added and treated for 10 h. The cells were harvested, and incubated with DHE dye for about 30 min. DHE dye was washed, and the fluorescence intensity of DHE was detected by a high-content system."}, "[25]": {"molecular_target": "T23, NTRK3 (TRKC) (Homo sapiens, UniProt Q16288)", "T23 construct": "purchased Life Technologies Corporation (Kinase Screening Service)", "experiment": "Kinase screening service: NTRK3", "type": "biochemical", "conditions": "average of duplicates", "procedure": "as §1"}, "[26]": {"molecular_target": "T24, PRKCB1 (PKC beta I) (Homo sapiens, UniProt P05771)", "T24 construct": "purchased Life Technologies Corporation (Kinase Screening Service)", "experiment": "Kinase screening service: PRKCB1", "type": "biochemical", "conditions": "average of duplicates", "procedure": "as §1"}, "[27]": {"molecular_target": "T25, GSK3B (GSK3 beta) (Homo sapiens, UniProt P49841)", "T25 construct": "purchased Life Technologies Corporation (Kinase Screening Service)", "experiment": "Kinase screening service: GSK3B", "type": "biochemical", "conditions": "average of duplicates", "procedure": "as §1"}, "[28]": {"molecular_target": "T26, TYRO3 (RSE) (Homo sapiens, UniProt Q06418)", "T26 construct": "purchased Life Technologies Corporation (Kinase Screening Service)", "T26 sequence (Q06418 41-890)": "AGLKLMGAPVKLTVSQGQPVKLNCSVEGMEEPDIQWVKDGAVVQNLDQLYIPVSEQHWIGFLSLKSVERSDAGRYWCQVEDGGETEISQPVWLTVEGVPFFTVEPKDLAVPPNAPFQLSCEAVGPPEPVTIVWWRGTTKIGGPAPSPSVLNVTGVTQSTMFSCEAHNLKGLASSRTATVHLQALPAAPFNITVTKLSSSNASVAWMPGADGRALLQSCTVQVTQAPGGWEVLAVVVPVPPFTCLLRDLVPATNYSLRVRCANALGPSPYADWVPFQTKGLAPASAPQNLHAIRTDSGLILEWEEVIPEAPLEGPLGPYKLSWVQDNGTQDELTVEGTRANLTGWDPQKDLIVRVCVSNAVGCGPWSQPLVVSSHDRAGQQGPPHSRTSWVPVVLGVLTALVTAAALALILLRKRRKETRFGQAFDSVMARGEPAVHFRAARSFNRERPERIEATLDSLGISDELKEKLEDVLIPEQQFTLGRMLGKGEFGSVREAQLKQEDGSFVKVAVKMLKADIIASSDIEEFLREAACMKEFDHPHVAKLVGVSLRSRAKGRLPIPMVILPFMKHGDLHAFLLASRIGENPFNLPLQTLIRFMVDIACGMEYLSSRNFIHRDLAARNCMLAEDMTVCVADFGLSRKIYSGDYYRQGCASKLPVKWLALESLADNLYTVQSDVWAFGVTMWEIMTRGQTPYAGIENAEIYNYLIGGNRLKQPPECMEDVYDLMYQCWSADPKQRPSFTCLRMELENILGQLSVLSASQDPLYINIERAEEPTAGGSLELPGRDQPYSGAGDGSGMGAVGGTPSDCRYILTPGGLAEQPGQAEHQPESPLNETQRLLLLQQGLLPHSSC", "experiment": "Kinase screening service: TYRO3", "type": "biochemical", "conditions": "average of duplicates", "procedure": "as §1"}, "[29]": {"molecular_target": "T27, PRKCA (PKC alpha) (Homo sapiens, UniProt P17252)", "T27 construct": "purchased Life Technologies Corporation (Kinase Screening Service)", "experiment": "Kinase screening service: PRKCA", "type": "biochemical", "conditions": "average of duplicates", "procedure": "as §1"}, "[30]": {"molecular_target": "T28, CSNK1G3 (CK1 gamma 3) (Homo sapiens, UniProt Q9Y6M4)", "T28 construct": "purchased Life Technologies Corporation (Kinase Screening Service)", "T28 sequence (Q9Y6M4 whole entry)": "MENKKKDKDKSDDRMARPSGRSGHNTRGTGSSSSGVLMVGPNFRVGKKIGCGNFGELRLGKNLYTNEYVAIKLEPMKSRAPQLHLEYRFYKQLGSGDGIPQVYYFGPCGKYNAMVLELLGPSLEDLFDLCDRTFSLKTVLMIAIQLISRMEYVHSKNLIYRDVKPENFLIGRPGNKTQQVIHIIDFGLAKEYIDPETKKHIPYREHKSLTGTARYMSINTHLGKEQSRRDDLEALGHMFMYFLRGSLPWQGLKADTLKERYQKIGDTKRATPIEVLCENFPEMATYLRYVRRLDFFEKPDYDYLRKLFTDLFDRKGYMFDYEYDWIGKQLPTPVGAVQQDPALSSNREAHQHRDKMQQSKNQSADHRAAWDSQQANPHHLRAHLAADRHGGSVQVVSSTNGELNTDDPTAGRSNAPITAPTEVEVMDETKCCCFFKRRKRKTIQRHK", "experiment": "Kinase screening service: CSNK1G3", "type": "biochemical", "conditions": "average of duplicates", "procedure": "as §1"}}}
{"smiles": "O=C(CCCCC1CCSS1)NC1CCC(Nc2cccc3cnccc23)CC1", "note": "(stereo not shown) [PT109, 5-(1,2-dithiolan-3-yl)-N-(4-(isoquinolin-5-ylamino)cyclohexyl) pentanamide]", "values": [{"measurement": "inhibition at 10 µM", "setting": "[1]", "value": -2, "unit": "%"}, {"measurement": "inhibition at 10 µM", "setting": "[2]", "value": 13, "unit": "%"}, {"measurement": "inhibition at 10 µM", "setting": "[3]", "value": 5, "unit": "%"}, {"measurement": "specificity for SGK1 and JNK", "setting": "[4]", "value": "better specificity for SGK1 and JNK"}, {"measurement": "IC50", "setting": "[5]", "value": 0.143, "unit": "µM"}, {"measurement": "inhibition at 10 µM", "setting": "[5]; 10 μM, average of duplicates", "value": 104, "unit": "%"}, {"measurement": "inhibition at 10 µM", "setting": "[6]", "value": 16, "unit": "%"}, {"measurement": "inhibition at 10 µM", "setting": "[7]", "value": 63, "unit": "%"}, {"measurement": "inhibition at 10 µM", "setting": "[8]", "value": 8, "unit": "%"}, {"measurement": "inhibition at 10 µM", "setting": "[9]", "value": 7, "unit": "%"}, {"measurement": "inhibition at 10 µM", "setting": "[10]", "value": 7, "unit": "%"}, {"measurement": "inhibition at 10 µM", "setting": "[11]", "value": 40, "unit": "%"}, {"measurement": "inhibition at 10 µM", "setting": "[12]", "value": 10, "unit": "%"}, {"measurement": "inhibition at 10 µM", "setting": "[13]", "value": 18, "unit": "%"}, {"measurement": "IC50", "setting": "[14]", "value": 5.6, "unit": "µM"}, {"measurement": "inhibition at 10 µM", "setting": "[15]", "value": -6, "unit": "%"}, {"measurement": "inhibition at 10 µM", "setting": "[16]", "value": 34, "unit": "%"}, {"measurement": "inhibition at 10 µM", "setting": "[17]", "value": 3, "unit": "%"}, {"measurement": "inhibition at 10 µM", "setting": "[18]", "value": 2, "unit": "%"}, {"measurement": "inhibition at 10 µM", "setting": "[19]", "value": 6, "unit": "%"}, {"measurement": "inhibition at 10 µM", "setting": "[20]", "value": 16, "unit": "%"}, {"measurement": "inhibition at 10 µM", "setting": "[21]", "value": 10, "unit": "%"}, {"measurement": "inhibition at 10 µM", "setting": "[22]", "value": 3, "unit": "%"}, {"measurement": "inhibition at 10 µM", "setting": "[23]", "value": 30, "unit": "%"}, {"measurement": "glutamine-induced ROS elevation (DHE fluorescence)", "setting": "[24]", "value": "significantly reduced"}, {"measurement": "inhibition at 10 µM", "setting": "[25]", "value": 28, "unit": "%"}, {"measurement": "inhibition at 10 µM", "setting": "[26]", "value": -10, "unit": "%"}, {"measurement": "inhibition at 10 µM", "setting": "[27]", "value": 61, "unit": "%"}, {"measurement": "inhibition at 10 µM", "setting": "[28]", "value": 12, "unit": "%"}, {"measurement": "inhibition at 10 µM", "setting": "[29]", "value": 25, "unit": "%"}, {"measurement": "inhibition at 10 µM", "setting": "[30]", "value": 24, "unit": "%"}]}
